Data: patent US20100317647A1 (priority 2009, published 2010)

These compounds were tested against human Cat S (Homo sapiens, UniProt P25774) (assay: Cathepsin enzyme inhibition assay (fluorogenic peptide substrate cleavage)). Conditions: human Cat S 1 nM; substrate Z-Val-Val-Arg-AMC 20 μM; pH 6.5; fluorescence over 20 minutes.
Assay type: biochemical
In short: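 Fluorogenic cleavage of Z-Val-Val-Arg-AMC (20 μM) by 1 nM enzyme in 100 mM potassium phosphate pH 6.5, 5 mM EDTA, 5 mM DTT, 0.001% Triton X-100. Reaction started with substrate; fluorescence (ex 360/em 465 nm) followed over 20 minutes. IC50 by standard methods.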

human Cat S, sequence (P25774 115-331): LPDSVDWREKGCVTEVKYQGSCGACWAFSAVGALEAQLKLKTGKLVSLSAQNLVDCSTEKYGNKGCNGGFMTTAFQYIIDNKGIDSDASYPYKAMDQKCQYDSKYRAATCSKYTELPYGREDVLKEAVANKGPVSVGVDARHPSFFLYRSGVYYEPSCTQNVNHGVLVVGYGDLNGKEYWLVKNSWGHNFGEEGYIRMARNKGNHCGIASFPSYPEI

Row | SMILES | IC50 [nM]
1 | Cc1cc(-c2ccc(S(=O)(=O)[C@H]3C[C@@H](OC4CCOCC4)[C@H](C(=O)NC4(C#N)CC4)C3)c(C(F)(F)F)c2)ccn1 (racemic) [Example 174, (1R,2R,4R) and (1S,2S,4S)-4-[4-(2-Methyl-pyridin-4-yl)-2-trifluoromethyl-benzenesulfonyl]-2-(tetrahydro-pyran-4-yloxy)-cyclopentanecarboxylic acid (1-cyano-cyclopropyl)-amide] | 0.17
2 | Cc1cc(-c2ccc(S(=O)(=O)[C@H]3C[C@@H](OC4CCC4)[C@H](C(=O)NC4(C#N)CC4)C3)c(C(F)(F)F)c2)ccn1 (racemic) [Example 210, (1R,2R,4R) and (1S,2S,4S)-2-Cyclobutoxy-4-[4-(2-methyl-pyridin-4-yl)-2-trifluoromethyl-benzenesulfonyl]-cyclopentanecarboxylic acid (1-cyano-cyclopropyl)-amide] | 0.21
3 | N#CC1(NC(=O)C2CC(S(=O)(=O)c3ccc(-n4cccn4)cc3C(F)(F)F)CC2C(=O)N2CC(F)(F)C2)CC1 (stereo not shown) [Example 128, 2-(3,3-Difluoro-azetidine-1-carbonyl)-4-(4-pyrazol-1-yl-2-trifluoromethyl-benzenesulfonyl)-cyclopentanecarboxylic acid (1-cyano-cyclopropyl)-amide] | 0.7
4 | N#CC1(NC(=O)[C@@H]2CC(S(=O)(=O)c3ccccc3Cl)C[C@H]2COc2ccc(O)nn2)CC1 (mixture of isomers) [Example 108, (1R,2R,4S)-4-(2-Chloro-benzenesulfonyl)-2-(6-hydroxy-pyridazin-3-yloxymethyl)-cyclopentanecarboxylic acid(1-cyano-cyclopropyl)-amide and (1R,2R,4R)-4-(2-Chloro-benzenesulfonyl)-2-(6-hydroxy-pyridazin-3-yloxymethyl)-cyclopentanecarboxylic acid(1-cyano-cyclopropyl)-amide] | 21.2
5 | COCCn1cc(-c2ccc(S(=O)(=O)[C@H]3C[C@@H](OC)[C@H](C(=O)NC4(C#N)CC4)C3)c(C(F)(F)F)c2)cn1 (racemic) [Example 172, (1R,2R,4R) and (1S,2S,4S)-2-Methoxy-4-{4-[1-(2-methoxy-ethyl)-1H-pyrazol-4-yl]-2-trifluoromethyl-benzenesulfonyl}-cyclopentanecarboxylic acid (1-cyano-cyclopropyl)-amide] | 0.435
6 | CO[C@@H]1C[C@H](S(=O)(=O)c2ccc(-c3ccc(F)c(F)c3)cc2C(F)(F)F)C[C@H]1C(=O)NC1(C#N)CC1 (racemic) [Example 74, (1R,2R,4R) and (1S,2S,4S)-4-(3′,4′-Difluoro-3-trifluoromethyl-biphenyl-4-sulfonyl)-2-methoxy-cyclopentanecarboxylic acid (1-cyano-cyclopropyl)-amide] | 0.7
7 | CO[C@@H]1C[C@H](S(=O)(=O)c2ccc(-c3ccccn3)cc2C(F)(F)F)C[C@H]1C(=O)NC1(C#N)CC1 (racemic) [Example 41, (1R,2R,4R) and (1S,2S,4S)-2-Methoxy-4-(4-pyridin-2-yl-2-trifluoromethyl-benzenesulfonyl)-cyclopentanecarboxylic acid (1-cyano-cyclopropyl)-amide] | 0.1
8 | N#CC1(NC(=O)[C@@H]2C[C@@H](S(=O)(=O)c3ccc(F)cc3C(F)(F)F)C[C@H]2C(=O)N2CC(F)(F)C2)CC1 [Example 118, (1R,2R,4R)-2-(3,3-Difluoro-azetidine-1-carbonyl)-4-(4-fluoro-2-trifluoromethyl-benzenesulfonyl)-cyclopentanecarboxylic acid (1-cyano-cyclopropyl)-amide] | 3
9 | N#CC1(NC(=O)[C@@H]2C[C@H](S(=O)(=O)c3ccc(F)cc3Cl)C[C@H]2COc2ccc(F)cc2)CC1 (single isomer, unassigned) [Example 146] | 2.25
10 | CO[C@@H]1C[C@H](S(=O)(=O)c2ccc(Br)cc2C(F)(F)F)C[C@H]1C(=O)NC1(C#N)CC1 (single isomer, unassigned) [Example 137] | 4.8
11 | N#CC1(NC(=O)C2CC(S(=O)(=O)c3ccc(OC4COC4)cc3C(F)(F)F)CC2C(=O)N2CC(F)(F)C2)CC1 (stereo not shown) [Example 127, 2-(3,3-Difluoro-azetidine-1-carbonyl)-4-[4-(oxetan-3-yloxy)-2-trifluoromethyl-benzenesulfonyl]-cyclopentanecarboxylic acid (1-cyano-cyclopropyl)-amide] | 1.1
12 | N#CC1(NC(=O)[C@@H]2C[C@@H](S(=O)(=O)c3ccc(F)cc3Cl)C[C@H]2CO)CC1 [Example 155, (1R,2R,4S)-4-(2-Chloro-4-fluoro-benzenesulfonyl)-2-hydroxymethyl-cyclopentanecarboxylic acid (1-cyano-cyclopropyl)-amide] | 107
13 | CO[C@@H]1C[C@H](S(=O)(=O)c2ccccc2C(F)(F)F)C[C@H]1C(=O)NCC#N (racemic) [Example 47, (1R,2R,4R) and (1S,2S,4S)-2-Methoxy-4-(2-trifluoromethyl-benzenesulfonyl)-cyclopentanecarboxylic acid cyanomethyl-amide] | 7.8
14 | N#CC1(NC(=O)[C@H]2CC[C@H](S(=O)(=O)c3ccc(-n4cccn4)cc3Cl)C2)CC1 (single isomer, unassigned) [Example 100] | 170
15 | CO[C@@H]1C[C@H](S(=O)(=O)c2ccc(-c3cncnc3)cc2C(F)(F)F)C[C@H]1C(=O)NC1(C#N)CC1 (racemic) [Example 82, (1R,2R,4R) and (1S,2S,4S)-2-Methoxy-4-(4-pyrimidin-5-yl-2-trifluoromethyl-benzenesulfonyl)-cyclopentanecarboxylic acid (1-cyano-cyclopropyl)-amide] | 0.6
16 | C[C@H](Oc1ccc(S(=O)(=O)[C@@H]2C[C@@H](C(=O)NC3(C#N)CC3)[C@H](C(=O)N3CC(F)(F)C3)C2)c(Cl)c1)C(F)(F)F [Example 135, (1R,2R,4R)-4-[2-Chloro-4-((S)-2,2,2-trifluoro-1-methyl-ethoxy)-benzenesulfonyl]-2-(3,3-difluoro-azetidine-1-carbonyl)-cyclopentanecarboxylic acid (1-cyano-cyclopropyl)-amide] | 2.4
17 | CO[C@@H]1C[C@H](S(=O)(=O)c2ccc(-c3ccccc3)cc2C(F)(F)F)C[C@H]1C(=O)NC1(C#N)CC1 (racemic) [Example 171, (1R,2R,4R) and (1S,2S,4S)-2-Methoxy-4-(3-trifluoromethyl-biphenyl-4-sulfonyl)-cyclopentanecarboxylic acid (1-cyano-cyclopropyl)-amide] | 1.2

Continued, values first:

Row | IC50 [nM] | SMILES
18 | 157 | N#CC1(NC(=O)[C@@H]2C[C@@H](S(=O)(=O)c3ccccc3Cl)C[C@H]2OCc2cc(F)c(Cl)cc2Cl)CC1 (racemic) [Example 180, (1R,2R,4R) and (1S,2S,4S)-4-(2-Chlorophenylsulfonyl)-N-(1-cyanocyclopropyl)-2-(2,4-dichloro-5-fluorobenzyloxy)cyclopentanecarboxamide]
19 | 0.675 | N#CC1(NC(=O)[C@@H]2C[C@@H](S(=O)(=O)c3ccc(OCC(F)(F)F)cc3Cl)C[C@H]2C(=O)N2CCC(F)(F)C2)CC1 [Example 189, (1R,2R,4R)-4-[2-Chloro-4-(2,2,2-trifluoro-ethoxy)-benzenesulfonyl]-2-(3,3-difluoro-pyrrolidine-1-carbonyl)-cyclopentanecarboxylic acid (1-cyano-cyclopropyl)-amide]
20 | 62.5 | N#CC1(NC(=O)[C@@H]2C[C@@H](S(=O)(=O)c3ccccc3Cl)C[C@H]2OCc2ccc(Cl)c(Cl)c2)CC1 (racemic) [Example 250, (1R,2R,4R) and (1S,2S,4S)-4-(2-Chloro-benzenesulfonyl)-2-(3,4-dichloro-benzyloxy)-cyclopentanecarboxylic acid (1-cyano-cyclopropyl)-amide]
21 | 1.67 | CO[C@@H]1C[C@H](S(=O)(=O)c2ccc(N3CCN(CC(F)(F)F)CC3)cc2C(F)(F)F)C[C@H]1C(=O)NC1(C#N)CC1 (racemic) [Example 193, (1R,2R,4R) and (1S,2S,4S)-2-Methoxy-4-{4-[4-(2,2,2-trifluoro-ethyl)-piperazin-1-yl]-2-trifluoromethyl-benzenesulfonyl}-cyclopentanecarboxylic acid (1-cyano-cyclopropyl)-amide]
22 | 3.5 | CS(=O)(=O)c1cc(Cl)ccc1CO[C@@H]1C[C@H](S(=O)(=O)c2ccccc2Cl)C[C@H]1C(=O)NC1(C#N)CC1 (racemic) [Example 248, (1R,2R,4R) and (1S,2S,4S)-4-(2-Chloro-benzenesulfonyl)-2-(4-chloro-2-methanesulfonyl-benzyloxy)-cyclopentanecarboxylic acid (1-cyano-cyclopropyl)-amide]
23 | 1.32 | N#CC1(NC(=O)[C@@H]2C[C@@H](S(=O)(=O)c3ccc(Br)cc3C(F)(F)F)C[C@H]2OC2CCS(=O)(=O)CC2)CC1 (racemic) [Example 181, (1R,2R,4R) and (1S,2S,4S)-4-(4-Bromo-2-trifluoromethyl-benzenesulfonyl)-2-[(tetrahydro-1,1-dioxo-2H-thiopyran-4-yl)oxy]-cyclopentanecarboxylic acid (1-cyano-cyclopropyl)-amide]
24 | 1.03 | CO[C@@H]1C[C@H](S(=O)(=O)c2ccc(N3CCN(C(C)=O)CC3)cc2C(F)(F)F)C[C@H]1C(=O)NC1(C#N)CC1 (racemic) [Example 217, (1R,2R,4R) and (1S,2S,4S)-4-[4-(4-Acetyl-piperazin-1-yl)-2-trifluoromethyl-benzenesulfonyl]-2-methoxy-cyclopentanecarboxylic acid (1-cyano-cyclopropyl)-amide]
25 | 0.215 | Cc1cc(-c2ccc(S(=O)(=O)[C@H]3C[C@@H](OC4CCCC4)[C@H](C(=O)NC4(C#N)CC4)C3)c(C(F)(F)F)c2)ccn1 (racemic) [Example 212, (1R,2R,4R) and (1S,2S,4S)-2-Cyclopentyloxy-4-[4-(2-methyl-pyridin-4-yl)-2-trifluoromethyl-benzenesulfonyl]-cyclopentanecarboxylic acid (1-cyano-cyclopropyl)-amide]
